# Key:
# [1] = target: T1, Voltage-gated inwardly rectifying potassium channel KCNH2 (Homo sapiens, UniProt Q12809); experiment: Inhibition of hERG expressed in HEK cells assessed as Rb+ efflux ratio at 10 mg/L incubated for 4 mins (reference value: 79.71 to 94.98 %); type: toxicity, cell-based; parameters: scale not given: the % may be the effect or the level left; details: at 10 µg/mL
# [2] = target: T1, Voltage-gated inwardly rectifying potassium channel KCNH2; experiment: Inhibition of hERG expressed in HEK cells assessed as Rb+ efflux ratio at 100 mg/L incubated for 4 mins (reference value: 79.71 to 94.98 %); type: toxicity, cell-based; parameters: scale not given: the % may be the effect or the level left; details: at 100 µg/mL
# [3] = target: T1, Voltage-gated inwardly rectifying potassium channel KCNH2; experiment: Inhibition of hERG expressed in HEK cells assessed as Rb+ efflux ratio at 1 mg/L incubated for 4 mins (reference value: 79.71 to 94.98 %); type: toxicity, cell-based; parameters: scale not given: the % may be the effect or the level left; details: at 1 µg/mL
# Mus musculus [4] = experiment: Analgesic activity against sc dosed acetic acid-induced Kunming writhing mouse model assessed as inhibition of writhing pretreated with compound for 15 mins followed by acetic acid addition and measured after 15 mins; type: functional; details: 0.5 h, time 30 min
# [5] = Acute toxicity in sc dosed Kunming mouse assessed as mortality rate measured after 24 hrs; type: organism-based; details: in vivo
# Mus musculus [6] = experiment: Analgesic activity against acetic acid-induced Kunming writhing mouse model assessed as inhibition of writhing at 3.5 mg/kg, sc pretreated with compound for 15 mins followed by acetic acid addition and measured after 15 mins relative to control; type: functional; details: 0.5 h, time 30 min
# Mus musculus [7] = experiment: Analgesic activity against acetic acid-induced Kunming writhing mouse model assessed as inhibition of writhing at 10 mg/kg, sc pretreated with compound for 15 mins followed by acetic acid addition and measured after 15 mins relative to control; type: functional; details: 0.5 h, time 30 min
# [8] = Therapeutic index, ratio of LD50 for acute toxicity in sc dosed Kunming mouse to ratio of ED50 for analgesic activity against sc dosed acetic acid-induced Kunming writhing mouse model; type: organism-based; details: in vivo, read-out: TI
# [9] = Drug metabolism in sc dosed acetic acid-induced Kunming writhing mouse model assessed as metabolites in urine; type: ADME, organism-based; details: in vivo
# [10] = Drug metabolism in sc dosed acetic acid-induced Kunming writhing mouse model assessed as metabolites in feces; type: ADME, organism-based; details: in vivo
# T1 sequence (Q12809 whole entry): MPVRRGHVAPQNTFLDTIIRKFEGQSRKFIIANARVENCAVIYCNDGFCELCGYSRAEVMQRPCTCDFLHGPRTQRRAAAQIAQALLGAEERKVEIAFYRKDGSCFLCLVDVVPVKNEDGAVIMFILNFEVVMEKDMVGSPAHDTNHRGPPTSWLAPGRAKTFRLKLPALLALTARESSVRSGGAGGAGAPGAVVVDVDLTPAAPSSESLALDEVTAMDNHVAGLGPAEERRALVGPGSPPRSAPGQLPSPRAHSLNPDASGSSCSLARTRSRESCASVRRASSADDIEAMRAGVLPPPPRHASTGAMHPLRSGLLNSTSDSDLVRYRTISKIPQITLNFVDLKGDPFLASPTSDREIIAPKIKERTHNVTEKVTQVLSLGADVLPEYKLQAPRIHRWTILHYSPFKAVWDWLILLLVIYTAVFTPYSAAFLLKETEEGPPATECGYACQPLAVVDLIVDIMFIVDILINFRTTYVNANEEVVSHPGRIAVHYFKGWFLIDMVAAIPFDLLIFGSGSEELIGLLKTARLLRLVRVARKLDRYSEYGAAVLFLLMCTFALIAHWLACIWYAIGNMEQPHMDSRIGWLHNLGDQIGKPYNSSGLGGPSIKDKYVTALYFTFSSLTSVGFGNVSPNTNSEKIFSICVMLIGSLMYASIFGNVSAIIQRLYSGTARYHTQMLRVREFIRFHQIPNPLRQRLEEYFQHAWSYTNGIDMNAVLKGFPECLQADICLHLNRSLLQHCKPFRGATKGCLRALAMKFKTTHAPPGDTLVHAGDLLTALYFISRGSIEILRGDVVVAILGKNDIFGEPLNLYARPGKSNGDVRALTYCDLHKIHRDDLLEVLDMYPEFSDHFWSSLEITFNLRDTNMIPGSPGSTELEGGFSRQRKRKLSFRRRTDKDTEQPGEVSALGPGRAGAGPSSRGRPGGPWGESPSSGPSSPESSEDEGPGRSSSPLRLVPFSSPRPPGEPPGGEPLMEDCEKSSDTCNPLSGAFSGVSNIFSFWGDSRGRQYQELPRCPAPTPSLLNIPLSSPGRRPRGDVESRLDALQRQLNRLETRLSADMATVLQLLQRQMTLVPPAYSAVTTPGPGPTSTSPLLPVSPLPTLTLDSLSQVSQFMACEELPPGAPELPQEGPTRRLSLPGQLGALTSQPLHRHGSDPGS
smiles,measurement,setting,value
CCN1C[C@]2(OC(=O)c3ccccc3N)CC[C@H](OC)[C@]34C1[C@H](C[C@H]23)[C@@]1(O)C[C@H](OC)[C@H]2C[C@@H]4[C@]1(O)[C@H]2OC,Activity,[1],92.35%
same,Activity,[2],65.7%
same,Activity,[3],96.05%
CCN1C[C@]2(OC(=O)c3ccccc3NC(C)=O)CC[C@H](OC)[C@]34C1[C@H](C[C@H]23)[C@@]1(O)C[C@H](OC)[C@H]2C[C@@H]4[C@]1(O)[C@H]2OC,ED50,Mus musculus [4],3.5 mg/kg
same,LD50 at 24 h,[5],11.7 mg/kg
same,inhibition in vivo at 3.5 mg/kg,Mus musculus [6],56.6%
CCN1C[C@]2(OC(=O)c3ccccc3NS(=O)(=O)c3ccccc3[N+](=O)[O-])CC[C@H](OC)[C@]34C1[C@H](C[C@H]23)[C@@]1(O)C[C@H](OC)[C@H]2C[C@@H]4[C@]1(O)[C@H]2OC,inhibition in vivo at 10 mg/kg,Mus musculus [7],58.5%
CCN1C[C@]2(OC(=O)c3ccccc3NS(=O)(=O)c3cccs3)CC[C@H](OC)[C@]34C1[C@H](C[C@H]23)[C@@]1(O)C[C@H](OC)[C@H]2C[C@@H]4[C@]1(O)[C@H]2OC,inhibition in vivo at 10 mg/kg,Mus musculus [7],1%
CCN1C[C@]2(OC(=O)c3ccccc3NC(=O)c3ccc(OC(C)C)cc3)CC[C@H](OC)[C@]34C1[C@H](C[C@H]23)[C@@]1(O)C[C@H](OC)[C@H]2C[C@@H]4[C@]1(O)[C@H]2OC,ED50,Mus musculus [4],8.1 mg/kg
same,LD50 at 24 h,[5],196 mg/kg
same,inhibition in vivo at 10 mg/kg,Mus musculus [7],51.1%
same,selectivity ratio,[8],24.2
CCN1C[C@]2(OC(=O)c3ccccc3NS(=O)(=O)c3ccccc3OC)CC[C@H](OC)[C@]34C1[C@H](C[C@H]23)[C@@]1(O)C[C@H](OC)[C@H]2C[C@@H]4[C@]1(O)[C@H]2OC,ED50,Mus musculus [4],5.5 mg/kg
same,LD50 at 24 h,[5],300 mg/kg
same,Activity,[1],65.13%
same,Activity,[2],50.83%
same,Drug metabolism,[9],Metabolite_Detected
same,Drug metabolism,[10],Metabolite_Detected
same,Activity,[3],80.88%
same,inhibition in vivo at 10 mg/kg,Mus musculus [7],71.2%
same,selectivity ratio,[8],54.5
CCN1C[C@]2(OC(=O)c3ccccc3NS(=O)(=O)c3cccc(C(F)(F)F)c3)CC[C@H](OC)[C@]34C1[C@H](C[C@H]23)[C@@]1(O)C[C@H](OC)[C@H]2C[C@@H]4[C@]1(O)[C@H]2OC,inhibition in vivo at 10 mg/kg,Mus musculus [7],12.8%
CCN1C[C@]2(OC(=O)c3ccccc3NS(=O)(=O)c3cccc4cccnc34)CC[C@H](OC)[C@]34C1[C@H](C[C@H]23)[C@@]1(O)C[C@H](OC)[C@H]2C[C@@H]4[C@]1(O)[C@H]2OC,inhibition in vivo at 10 mg/kg,Mus musculus [7],42.4%
CCN1C[C@]2(OC(=O)c3ccccc3NS(=O)(=O)c3ccccc3)CC[C@H](OC)[C@]34C1[C@H](C[C@H]23)[C@@]1(O)C[C@H](OC)[C@H]2C[C@@H]4[C@]1(O)[C@H]2OC,ED50,Mus musculus [4],6.1 mg/kg
same,LD50 at 24 h,[5],> 600 mg/kg
same,Activity,[1],72.11%
same,Activity,[2],44.12%
same,Drug metabolism,[9],Metabolite_Detected
same,Drug metabolism,[10],Metabolite_Detected
same,Activity,[3],88.87%
same,inhibition in vivo at 10 mg/kg,Mus musculus [7],84.3%
same,selectivity ratio,[8],> 98.3
CCN1C[C@]2(OC(=O)c3ccccc3NS(=O)(=O)c3cccnc3)CC[C@H](OC)[C@]34C1[C@H](C[C@H]23)[C@@]1(O)C[C@H](OC)[C@H]2C[C@@H]4[C@]1(O)[C@H]2OC,inhibition in vivo at 10 mg/kg,Mus musculus [7],32.3%
CCN1C[C@]2(OC(=O)c3ccccc3NC(=O)C3CC3)CC[C@H](OC)[C@]34C1[C@H](C[C@H]23)[C@@]1(O)C[C@H](OC)[C@H]2C[C@@H]4[C@]1(O)[C@H]2OC,inhibition in vivo at 3.5 mg/kg,Mus musculus [6],33.5%
CCN1C[C@]2(OC(=O)c3ccccc3NS(=O)(=O)c3cccc4ccccc34)CC[C@H](OC)[C@]34C1[C@H](C[C@H]23)[C@@]1(O)C[C@H](OC)[C@H]2C[C@@H]4[C@]1(O)[C@H]2OC,inhibition in vivo at 10 mg/kg,Mus musculus [7],49.3%
CCN1C[C@]2(OC(=O)c3ccccc3NS(=O)(=O)c3cccc([N+](=O)[O-])c3)CC[C@H](OC)[C@]34C1[C@H](C[C@H]23)[C@@]1(O)C[C@H](OC)[C@H]2C[C@@H]4[C@]1(O)[C@H]2OC,inhibition in vivo at 10 mg/kg,Mus musculus [7],6.7%
CCN1C[C@]2(OC(=O)c3ccccc3NS(=O)(=O)c3ccc(Cl)s3)CC[C@H](OC)[C@]34C1[C@H](C[C@H]23)[C@@]1(O)C[C@H](OC)[C@H]2C[C@@H]4[C@]1(O)[C@H]2OC,inhibition in vivo at 10 mg/kg,Mus musculus [7],31.3%
CCN1C[C@]2(OC(=O)c3ccccc3NS(=O)(=O)c3ccccc3Br)CC[C@H](OC)[C@]34C1[C@H](C[C@H]23)[C@@]1(O)C[C@H](OC)[C@H]2C[C@@H]4[C@]1(O)[C@H]2OC,inhibition in vivo at 10 mg/kg,Mus musculus [7],24.7%
CCN1C[C@]2(OC(=O)c3ccccc3NC(=O)CC(C)(C)C)CC[C@H](OC)[C@]34C1[C@H](C[C@H]23)[C@@]1(O)C[C@H](OC)[C@H]2C[C@@H]4[C@]1(O)[C@H]2OC,inhibition in vivo at 3.5 mg/kg,Mus musculus [6],24.9%
CCN1C[C@]2(OC(=O)c3ccccc3NS(=O)(=O)c3cccc4c(N(C)C)cccc34)CC[C@H](OC)[C@]34C1[C@H](C[C@H]23)[C@@]1(O)C[C@H](OC)[C@H]2C[C@@H]4[C@]1(O)[C@H]2OC,inhibition in vivo at 10 mg/kg,Mus musculus [7],42.5%
CCN1C[C@]2(OC(=O)c3ccccc3NS(=O)(=O)c3cccc(Br)c3)CC[C@H](OC)[C@]34C1[C@H](C[C@H]23)[C@@]1(O)C[C@H](OC)[C@H]2C[C@@H]4[C@]1(O)[C@H]2OC,inhibition in vivo at 10 mg/kg,Mus musculus [7],13%
C/C=C/C(=O)Nc1ccccc1C(=O)O[C@@]12CC[C@H](OC)[C@]34C([C@H](C[C@H]13)[C@@]1(O)C[C@H](OC)[C@H]3C[C@@H]4[C@]1(O)[C@H]3OC)N(CC)C2,inhibition in vivo at 3.5 mg/kg,Mus musculus [6],24.4%
CCN1C[C@]2(OC(=O)c3ccccc3NC(=O)c3ccc(OC)cc3)CC[C@H](OC)[C@]34C1[C@H](C[C@H]23)[C@@]1(O)C[C@H](OC)[C@H]2C[C@@H]4[C@]1(O)[C@H]2OC,ED50,Mus musculus [4],4.4 mg/kg
same,LD50 at 24 h,[5],296 mg/kg
same,Activity,[1],76.58%
same,Activity,[2],69.69%
same,Activity,[3],77%
same,inhibition in vivo at 10 mg/kg,Mus musculus [7],62.8%
same,selectivity ratio,[8],67.4
CCN1C[C@]2(OC(=O)c3ccccc3NS(=O)(=O)c3ccccc3C#N)CC[C@H](OC)[C@]34C1[C@H](C[C@H]23)[C@@]1(O)C[C@H](OC)[C@H]2C[C@@H]4[C@]1(O)[C@H]2OC,inhibition in vivo at 10 mg/kg,Mus musculus [7],53.9%
CCN1C[C@]2(OC(=O)c3ccccc3NS(=O)(=O)c3cccc(C#N)c3)CC[C@H](OC)[C@]34C1[C@H](C[C@H]23)[C@@]1(O)C[C@H](OC)[C@H]2C[C@@H]4[C@]1(O)[C@H]2OC,inhibition in vivo at 10 mg/kg,Mus musculus [7],47.4%
CCN1C[C@]2(OC(=O)c3ccccc3NS(=O)(=O)c3ccc4ccccc4c3)CC[C@H](OC)[C@]34C1[C@H](C[C@H]23)[C@@]1(O)C[C@H](OC)[C@H]2C[C@@H]4[C@]1(O)[C@H]2OC,inhibition in vivo at 10 mg/kg,Mus musculus [7],28.4%
CCOc1ccc(C(=O)Nc2ccccc2C(=O)O[C@@]23CC[C@H](OC)[C@]45C([C@H](C[C@H]24)[C@@]2(O)C[C@H](OC)[C@H]4C[C@@H]5[C@]2(O)[C@H]4OC)N(CC)C3)cc1,ED50,Mus musculus [4],6.6 mg/kg
same,LD50 at 24 h,[5],315 mg/kg
same,Activity,[1],80.07%
same,Activity,[2],76.45%
same,Activity,[3],79.38%
same,inhibition in vivo at 10 mg/kg,Mus musculus [7],62.8%
same,selectivity ratio,[8],47.7
CCCOc1ccc(C(=O)Nc2ccccc2C(=O)O[C@@]23CC[C@H](OC)[C@]45C([C@H](C[C@H]24)[C@@]2(O)C[C@H](OC)[C@H]4C[C@@H]5[C@]2(O)[C@H]4OC)N(CC)C3)cc1,ED50,Mus musculus [4],10.2 mg/kg
same,LD50 at 24 h,[5],214 mg/kg
same,inhibition in vivo at 10 mg/kg,Mus musculus [7],48.4%
same,selectivity ratio,[8],20.9
CCN1C[C@]2(OC(=O)c3ccccc3NS(=O)(=O)c3ccccc3C(F)(F)F)CC[C@H](OC)[C@]34C1[C@H](C[C@H]23)[C@@]1(O)C[C@H](OC)[C@H]2C[C@@H]4[C@]1(O)[C@H]2OC,inhibition in vivo at 10 mg/kg,Mus musculus [7],55.2%
CCN1C[C@]2(OC(=O)c3ccccc3NC(=O)c3ccc(N(C)C)cc3)CC[C@H](OC)[C@]34C1[C@H](C[C@H]23)[C@@]1(O)C[C@H](OC)[C@H]2C[C@@H]4[C@]1(O)[C@H]2OC,ED50,Mus musculus [4],6.2 mg/kg
same,LD50 at 24 h,[5],300 mg/kg
same,Activity,[1],85.86%
same,Activity,[2],84.7%
same,Drug metabolism,[9],Metabolite_Detected
same,Drug metabolism,[10],Metabolite_Detected
same,Activity,[3],87.34%
same,inhibition in vivo at 10 mg/kg,Mus musculus [7],62.1%
same,selectivity ratio,[8],48.5
